Test results reported in ChEMBL document CHEMBL1153024, “Antibacterial diterpenes from Plectranthus ernstii” (2009).
Values after ≈ are worked out from the molar mass of the structure shown. Active and inactive are the calls of the source. The calls are words filed in the database; no cut-off is given here.

Experiments:
[1] = tested on: Mycolicibacterium phlei; test: Antibacterial activity against Mycobacterium phlei after 72 hrs; type: functional
[2] = tested on: Staphylococcus aureus; test: Antibacterial activity against Staphylococcus aureus ATCC 25923 at 128 ug/ml after 24 hrs; type: functional, organism-based
[3] = tested on: Mycolicibacterium fortuitum; test: Antibacterial activity against Mycobacterium fortuitum after 72 hrs; type: functional
[4] = tested on: Staphylococcus aureus; test: Antibacterial activity against Staphylococcus aureus EMRSA-15 at 128 ug/ml after 24 hrs; type: functional, organism-based
[5] = tested on: Mycolicibacterium smegmatis; test: Antibacterial activity against Mycobacterium smegmatis after 72 hrs; type: functional
[6] = tested on: Staphylococcus aureus; test: Antibacterial activity against Staphylococcus aureus RN4220 overexpressing MsrA at 128 ug/ml after 24 hrs; type: functional, organism-based
[7] = tested on: Staphylococcus aureus; test: Antibacterial activity against Staphylococcus aureus XU-212 overexpressing TetK, mecA at 128 ug/ml after 24 hrs; type: functional, organism-based
[8] = tested on: Staphylococcus aureus; test: Antibacterial activity against Staphylococcus aureus 1199B overexpressing NorA at 128 ug/ml after 24 hrs; type: functional, organism-based
[9] = tested on: Staphylococcus aureus; test: Antibacterial activity against Staphylococcus aureus RN4220 overexpressing MsrA after 24 hrs; type: functional; conditions: RN4220, 24 h
[10] = tested on: Staphylococcus aureus; test: Antibacterial activity against Staphylococcus aureus ATCC 25923 after 24 hrs; type: functional; conditions: ATCC 25923, 24 h
[11] = tested on: Staphylococcus aureus; test: Antibacterial activity against Staphylococcus aureus EMRSA-15 after 24 hrs; type: functional; conditions: EMRSA-15, 24 h
[12] = tested on: Staphylococcus aureus; test: Antibacterial activity against Staphylococcus aureus 1199B overexpressing NorA after 24 hrs; type: functional
[13] = tested on: Staphylococcus aureus; test: Antibacterial activity against Staphylococcus aureus XU-212 overexpressing TetK, mecA after 24 hrs; type: functional; conditions: XU-212, 24 h

SMILES	MIC [1] [µg/mL]	MIC [2]	MIC [3] [µg/mL]	MIC [4]	MIC [5] [µg/mL]	MIC [6]	MIC [7]	MIC [8]	MIC [9] [µg/mL]	MIC [10] [µg/mL]	MIC [11] [µg/mL]	MIC [12] [µg/mL]	MIC [13] [µg/mL]
C=C[C@@]1(C)C[C@H](O)[C@@H]2[C@@]3(C)[C@H](O)CCC(C)(C)[C@@H]3CC[C@@]2(C)O1	128 (≈ 397 µM)	inactive	128 (≈ 397 µM)	inactive	128 (≈ 397 µM)	inactive	inactive	inactive	–	–	–	–	–
CC[C@H]1OC(=O)[C@H](C)[C@@H](O[C@H]2C[C@@](C)(OC)[C@@H](O)[C@H](C)O2)[C@H](C)[C@@H](O[C@@H]2O[C@H](C)C[C@H](N(C)C)[C@H]2O)[C@](C)(O)C[C@@H](C)C(=O)[C@H](C)[C@@H](O)[C@]1(C)O [ERYTHROMYCIN]	–	–	–	–	–	–	–	–	128 (≈ 174 µM)	–	–	–	–
CCn1cc(C(=O)O)c(=O)c2cc(F)c(N3CCNCC3)cc21 [NORFLOXACIN]	–	–	–	–	–	–	–	–	–	0.5 (≈ 1.57 µM)	2 (≈ 6.26 µM)	32 (≈ 100 µM)	–
CC[C@@H](CO)NCCN[C@@H](CC)CO [ETHAMBUTOL]	2 (≈ 9.79 µM)	–	4 (≈ 19.6 µM)	–	0.5 (≈ 2.45 µM)	–	–	–	–	–	–	–	–
CC1(C)CCC[C@]2(C)[C@H]3CC[C@](C)(C4CO4)C=C3[C@H](O)C[C@@H]12 (relative stereo)	8 (≈ 26.3 µM)	–	16 (≈ 52.5 µM)	–	16 (≈ 52.5 µM)	–	–	–	32 (≈ 105 µM)	32 (≈ 105 µM)	32 (≈ 105 µM)	32 (≈ 105 µM)	32 (≈ 105 µM)
CC1(C)CCC[C@]2(C)[C@H]3CC[C@](C)(C4CO4)C=C3C(=O)C[C@@H]12 (relative stereo)	64 (≈ 212 µM)	inactive	128 (≈ 423 µM)	inactive	128 (≈ 423 µM)	inactive	inactive	inactive	–	–	–	–	–
CN(C)[C@@H]1C(O)=C(C(N)=O)C(=O)[C@@]2(O)C(O)=C3C(=O)c4c(O)cccc4[C@@](C)(O)[C@H]3C[C@@H]12 [TETRACYCLINE]	–	–	–	–	–	–	–	–	–	–	–	–	128 (≈ 288 µM)
